Assay results from patent US8541588B2, “Sulfonamide derivatives” (Pfizer Limited, priority 2009, dated 2013).

Molecular target: T1, Nav1.7 (or SCN9A) channel; HEK cells stably transfected with hSCN9A (Homo sapiens, UniProt Q15858)
T1 construct: expressed in transfected cells
Assay: Nav1.7 block, PatchXpress 7000 automated whole-cell voltage clamp, estimated IC50 (EIC50)
Assay type: cell-based
Details: PatchXpress platform; hSCN9A HEK cells held at V1/2 of inactivation; estimated IC50

T1 sequence (Q15858 whole entry): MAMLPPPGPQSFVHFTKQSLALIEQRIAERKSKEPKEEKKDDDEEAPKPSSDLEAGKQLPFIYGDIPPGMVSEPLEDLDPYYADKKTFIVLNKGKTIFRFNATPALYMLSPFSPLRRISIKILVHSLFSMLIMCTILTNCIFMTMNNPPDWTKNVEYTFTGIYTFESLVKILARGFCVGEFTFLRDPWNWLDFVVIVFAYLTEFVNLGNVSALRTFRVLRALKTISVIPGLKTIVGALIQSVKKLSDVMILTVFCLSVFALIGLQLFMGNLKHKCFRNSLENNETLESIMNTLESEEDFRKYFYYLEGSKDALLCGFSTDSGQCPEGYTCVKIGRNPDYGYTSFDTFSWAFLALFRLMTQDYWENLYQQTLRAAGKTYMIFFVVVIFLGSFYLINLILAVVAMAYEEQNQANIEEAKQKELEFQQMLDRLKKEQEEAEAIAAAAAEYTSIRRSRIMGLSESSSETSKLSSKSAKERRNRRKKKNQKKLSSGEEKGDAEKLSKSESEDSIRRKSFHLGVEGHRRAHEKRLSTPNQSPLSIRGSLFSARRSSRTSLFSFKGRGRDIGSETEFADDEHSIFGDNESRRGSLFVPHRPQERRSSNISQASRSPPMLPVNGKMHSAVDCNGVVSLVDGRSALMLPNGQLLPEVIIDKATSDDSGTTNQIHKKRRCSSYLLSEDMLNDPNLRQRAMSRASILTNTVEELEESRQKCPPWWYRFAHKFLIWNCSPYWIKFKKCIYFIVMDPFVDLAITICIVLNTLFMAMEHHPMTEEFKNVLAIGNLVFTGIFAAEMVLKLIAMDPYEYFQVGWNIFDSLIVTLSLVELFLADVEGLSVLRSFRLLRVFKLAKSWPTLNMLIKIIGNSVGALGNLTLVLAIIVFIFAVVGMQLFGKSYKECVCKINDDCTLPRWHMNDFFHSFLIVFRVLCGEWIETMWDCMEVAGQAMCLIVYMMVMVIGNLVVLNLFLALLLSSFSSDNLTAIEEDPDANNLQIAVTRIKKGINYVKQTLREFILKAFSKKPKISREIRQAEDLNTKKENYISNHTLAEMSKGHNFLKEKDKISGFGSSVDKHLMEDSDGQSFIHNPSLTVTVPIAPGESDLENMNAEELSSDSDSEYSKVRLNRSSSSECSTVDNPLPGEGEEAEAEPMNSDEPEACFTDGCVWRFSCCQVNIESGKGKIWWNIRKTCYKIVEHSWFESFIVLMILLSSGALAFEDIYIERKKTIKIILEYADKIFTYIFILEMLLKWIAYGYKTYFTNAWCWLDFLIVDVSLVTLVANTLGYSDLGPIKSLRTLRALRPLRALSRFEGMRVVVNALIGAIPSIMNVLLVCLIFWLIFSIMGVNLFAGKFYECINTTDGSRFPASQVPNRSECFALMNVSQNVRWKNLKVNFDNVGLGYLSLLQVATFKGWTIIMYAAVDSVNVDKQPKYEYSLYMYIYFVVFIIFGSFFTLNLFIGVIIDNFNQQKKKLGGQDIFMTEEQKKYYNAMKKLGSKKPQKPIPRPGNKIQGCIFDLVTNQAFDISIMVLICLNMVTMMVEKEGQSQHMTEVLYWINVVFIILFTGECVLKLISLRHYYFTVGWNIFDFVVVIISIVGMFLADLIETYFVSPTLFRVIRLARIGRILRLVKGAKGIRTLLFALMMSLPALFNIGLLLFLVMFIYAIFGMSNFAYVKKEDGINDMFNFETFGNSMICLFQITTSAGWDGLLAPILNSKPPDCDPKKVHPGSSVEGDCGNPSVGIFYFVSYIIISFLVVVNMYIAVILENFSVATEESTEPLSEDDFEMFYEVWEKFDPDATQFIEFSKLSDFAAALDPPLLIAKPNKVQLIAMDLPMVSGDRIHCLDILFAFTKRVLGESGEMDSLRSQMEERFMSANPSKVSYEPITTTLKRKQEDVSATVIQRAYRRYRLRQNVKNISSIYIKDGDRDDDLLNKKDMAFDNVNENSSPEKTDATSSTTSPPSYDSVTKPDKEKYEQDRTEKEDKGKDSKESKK

SMILES	IC50 [nM]
O=S(=O)(Nc1nccs1)c1ccc(Oc2ccc(F)cc2-c2ccnn2CCO)c(F)c1 [Example 237, 3-fluoro-4-{4-fluoro-2-[1-(2-hydroxyethyl)-1H-pyrazol-5-yl]phenoxy}-N-1,3-thiazol-2-ylbenzenesulfonamide]	210
O=C(O)Cn1nccc1-c1cc(F)ccc1Oc1ccc(S(=O)(=O)Nc2nccs2)cc1F [Example 238, 2-(5-(5-fluoro-2-(2-fluoro-4-(N-thiazol-2-ylsulfamoyl)phenoxy)phenyl)-1H-pyrazol-1-yl)acetic acid]	2210
CN(C)C(=O)Cn1nccc1-c1cc(F)ccc1Oc1ccc(S(=O)(=O)Nc2nccs2)cc1F [Example 239, 2-(5-(5-fluoro-2-(2-fluoro-4-(N-thiazol-2-ylsulfamoyl)phenoxy)phenyl)-1H-pyrazol-1-yl)-N,N-dimethylacetamide]	1900
CC(C)(C)n1nc(Cc2ccc(Cl)cc2)cc1Oc1ccc(S(=O)(=O)Nc2nccs2)cc1F [Example 240, 4-[2-tert-butyl-5-(4-chloro-benzyl)-2H-pyrazol-3-yloxy]-3-fluoro-N-thiazol-2-yl-benzenesulfonamide]	1980
Cn1nc(Cc2ccc(Cl)cc2)cc1Oc1ccc(S(=O)(=O)Nc2nccs2)cc1F [Example 241, 4-[5-(4-chloro-benzyl)-2-methyl-2H-pyrazol-3-yloxy]-3-fluoro-N-thiazol-2-yl-benzenesulfonamide]	1470
O=S(=O)(Nc1nccs1)c1ccc(Oc2ccccc2-c2ccccc2)c(F)c1 [Example 242, 4-(biphenyl-2-yloxy)-3-fluoro-N-thiazol-2-yl-benzenesulfonamide]	120
O=S(=O)(Nc1nccs1)c1ccc(Oc2cc(Cc3ccc(Cl)cc3)n[nH]2)c(F)c1 [Example 243, 4-(3-(4-chlorobenzyl)-1H-pyrazol-5-yloxy)-3-fluoro-N-(thiazol-2-yl)benzenesulfonamide]	3860
Cc1c(Cl)ccc(Oc2ccc(S(=O)(=O)Nc3nccs3)cc2F)c1-c1nnco1 [Example 244, 4-(4-chloro-3-methyl-2-[1,3,4]oxadiazol-2-yl-phenoxy)-3-fluoro-N-thiazol-2-yl-benzenesulfonamide]	1790
CC(C)(C)n1nc(C(F)(F)F)cc1-c1ccc(Oc2ccc(S(=O)(=O)Nc3nccs3)cc2F)cc1 [Example 245, 4-[4-(2-tert-butyl-5-trifluoromethyl-2H-pyrazol-3-yl)-phenoxy]-3-fluoro-N-thiazol-2-yl-benzenesulfonamide]	1040
O=S(=O)(Nc1nccs1)c1ccc(Oc2ccc(-c3cc(C(F)(F)F)n[nH]3)cc2)c(F)c1 [Example 246, 3-fluoro-N-(thiazol-2-yl)-4-(4-(3-(trifluoromethyl)-1H-pyrazol-5-yl)phenoxy)benzenesulfonamide]	3760
O=S(=O)(Nc1nccs1)c1ccc(Oc2ccc(-c3ccccc3)cc2)c(F)c1 [Example 247, 4-(biphenyl-4-yloxy)-3-fluoro-N-thiazol-2-yl-benzenesulfonamide]	2950
Cc1cc(C)n(-c2ccc(Oc3ccc(S(=O)(=O)Nc4nccs4)cc3F)cc2)n1 [Example 248, 4-[4-(3,5-dimethyl-pyrazol-1-yl)-phenoxy]-3-fluoro-N-thiazol-2-yl-benzenesulfonamide]	2780
NC(=O)c1cc(S(=O)(=O)Nc2nccs2)ccc1Oc1cnn(Cc2ccc(Cl)cc2)c1 [Example 249, 2-(1-(4-chlorobenzyl)-1H-pyrazol-4-yloxy)-5-(N-thiazol-2-ylsulfamoyl)benzamide]	2400
NC(=O)c1cc(S(=O)(=O)Nc2nccs2)ccc1Oc1ccccc1-c1ccccc1 [Example 250, 2-(biphenyl-2-yloxy)-5-(N-thiazol-2-ylsulfamoyl)benzamide]	1850
O=S(=O)(Nc1nncs1)c1ccc(Oc2ccccc2-c2ccccc2)c(F)c1 [Example 251, 4-(biphenyl-2-yloxy)-3-fluoro-N-(1,3,4-thiadiazol-2-yl)benzenesulfonamide]	2540
Cc1nn(Cc2ccccc2)cc1-c1ccccc1Oc1ccc(S(=O)(=O)Nc2ncns2)cc1F [Example 252, 4-(2-(1-benzyl-3-methyl-1H-pyrazol-4-yl)phenoxy)-3-fluoro-N-(1,2,4-thiadiazol-5-yl)benzenesulfonamide]	24500
O=S(=O)(Nc1ncns1)c1ccc(Oc2cc(C(F)(F)F)nn2-c2cc(F)ccc2F)c(F)c1 [Example 253, 4-[2-(2,5-difluoro-phenyl)-5-trifluoromethyl-2H-pyrazol-3-yloxy]-3-fluoro-N-1,2,4-thiadiazol-5-yl-benzenesulfonamide]	630
O=S(=O)(Nc1ncns1)c1ccc(Oc2cc(C(F)(F)F)nn2-c2ccccc2)c(F)c1 [Example 254, 3-fluoro-4-(2-phenyl-5-trifluoromethyl-2H-pyrazol-3-yloxy)-N-1,2,4-thiadiazol-5-yl-benzenesulfonamide]	340
O=S(=O)(Nc1ncns1)c1ccc(Oc2cc(C(F)(F)F)nn2-c2ccccc2F)c(F)c1 [Example 255, 3-fluoro-4-[2-(2-fluoro-phenyl)-5-trifluoromethyl-2H-pyrazol-3-yloxy]-N-1,2,4-thiadiazol-5-yl-benzenesulfonamide]	490
Cc1cc(S(=O)(=O)Nc2ncns2)ccc1Oc1ccccc1-c1ccccc1 [Example 256, 4-(biphenyl-2-yloxy)-3-methyl-N-1,2,4-thiadiazol-5-ylbenzenesulfonamide]	220
Cc1cc(S(=O)(=O)Nc2ncns2)ccc1Oc1ccn(Cc2ccc(Cl)cc2)n1 [Example 257, 4-{[1-(4-chlorobenzyl)-1H-pyrazol-3-yl]oxy}-3-methyl-N-1,2,4-thiadiazol-5-ylbenzenesulfonamide]	2200
Cc1cc(S(=O)(=O)Nc2nccs2)ccc1Oc1ccccc1-c1ccccc1 [Example 258, 4-(biphenyl-2-yloxy)-3-methyl-N-1,3-thiazol-2-ylbenzenesulfonamide]	1020
COc1cc(S(=O)(=O)Nc2ncns2)ccc1Oc1ccn(Cc2ccc(Cl)cc2)n1 [Example 259, 4-{[1-(4-chlorobenzyl)-1H-pyrazol-3-yl]oxy}-3-methoxy-N-1,2,4-thiadiazol-5-ylbenzenesulfonamide]	16500
O=S(=O)(Nc1ncns1)c1ccc(Oc2ccccc2-c2ccccc2)cc1C(F)(F)F [Example 260, 4-(biphenyl-2-yloxy)-N-1,2,4-thiadiazol-5-yl-2-(trifluoromethyl)benzenesulfonamide]	15900
Cc1cc(Oc2ccccc2-c2ccccc2)ccc1S(=O)(=O)Nc1ncns1 [Example 261, 4-(biphenyl-2-yloxy)-2-methyl-N-1,2,4-thiadiazol-5-ylbenzenesulfonamide]	470
COc1cc(S(=O)(=O)Nc2ncns2)ccc1Oc1ccccc1-c1ccccc1 [Example 262, 4-(biphenyl-2-yloxy)-3-methoxy-N-1,2,4-thiadiazol-5-ylbenzenesulfonamide]	1320
O=S(=O)(Nc1ncns1)c1ccc(Oc2ccccc2-c2ccccc2)cc1Cl [Example 263, 4-(biphenyl-2-yloxy)-2-chloro-N-1,2,4-thiadiazol-5-ylbenzenesulfonamide]	1440
O=S(=O)(Nc1ncns1)c1cc(F)c(Oc2ccccc2-c2ccccc2)c(F)c1 [Example 264, 4-(biphenyl-2-yloxy)-3,5-difluoro-N-1,2,4-thiadiazol-5-ylbenzenesulfonamide]	2380
